# Assay results published in patent US10435405B2, “Pyrazolopyridine compounds and uses thereof” (Incyte Corporation, priority 2016, dated 2019).
# Biological target: HPK1 (Homo sapiens (Human), UniProt Q92918)
# Assay: HPK1 Kinase Binding Assay
# Procedure, shortened: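 Active HPK1 (added as 4 nM solution) was combined with compound (3-fold, 11-point series) and tracer 222 (18 nM) plus Eu-anti-GST antibody (4 nM) in 50 mM HEPES pH 7.5 with MgCl2 and DTT. After 1 h at 25 °C plates were read. Ki values were derived.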
# Sequence of HPK1 (Q92918 1-346): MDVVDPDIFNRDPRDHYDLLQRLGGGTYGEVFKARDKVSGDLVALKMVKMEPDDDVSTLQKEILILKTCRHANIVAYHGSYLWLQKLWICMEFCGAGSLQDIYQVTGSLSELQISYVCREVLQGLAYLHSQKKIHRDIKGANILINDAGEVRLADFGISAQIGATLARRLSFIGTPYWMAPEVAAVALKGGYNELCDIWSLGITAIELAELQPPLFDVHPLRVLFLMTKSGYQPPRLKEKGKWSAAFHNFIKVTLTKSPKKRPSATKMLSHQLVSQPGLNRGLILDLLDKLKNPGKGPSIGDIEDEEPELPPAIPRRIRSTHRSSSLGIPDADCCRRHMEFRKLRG
row,Structure (SMILES),Ki [nM]
1,"COC(=O)NCc1cc(C)c(-c2cc3c(-c4cnn(C)c4)n[nH]c3cn2)c(F)c1 [Example 192, Methyl 3-fluoro-5-methyl-4-(3-(1-methyl-1H-pyrazol-4-yl)-1H-pyrazolo[3,4-c]pyridin-5-yl)benzylcarbamate]",≤ 100
2,"CNCc1cc(F)c(-c2cc3c(-c4ccc(N5CCN(C(C)=O)CC5)cn4)n[nH]c3cn2)c(OC(F)F)c1 [Example 193, 1-(4-(6-(5-(2-(Difluoromethoxy)-6-fluoro-4-((methylamino)methyl)phenyl)-1H-pyrazolo[3,4-c]pyridin-3-yl)pyridin-3-yl)piperazin-1-yl)ethanone]",≤ 100
3,"CN1CCN(c2ccc(-c3n[nH]c4cnc(-c5c(F)cccc5CC#N)cc34)cc2)CC1 [Example 194, 2-(3-Fluoro-2-(3-(4-(4-methylpiperazin-1-yl)phenyl)-1H-pyrazolo[3,4-c]pyridin-5-yl)phenyl)acetonitrile]",≤ 100
4,"CN1CCN(c2ccc(-c3n[nH]c4cnc(-c5c(F)cccc5CN)cc34)cc2)CC1 [Example 195, (3-Fluoro-2-(3-(4-(4-methylpiperazin-1-yl)phenyl)-1H-pyrazolo[3,4-c]pyridin-5-yl)phenyl)methanamine]",≤ 100
5,"CN1CCN(c2ccc(-c3n[nH]c4cnc(-c5c(F)cccc5CO)cc34)cc2)CC1 [Example 196, (3-Fluoro-2-(3-(4-(4-methylpiperazin-1-yl)phenyl)-1H-pyrazolo[3,4-c]pyridin-5-yl)phenyl)methanol]",≤ 100
6,"CNC1CCc2c1cc(F)c(-c1cc3c(-c4ccc(N5CCN(C)CC5)cc4)n[nH]c3cn1)c2F (centres unmarked) [Example 197, 4,6-Difluoro-N-methyl-5-(3-(4-(4-methylpiperazin-1-yl)phenyl)-1H-pyrazolo[3,4-c]pyridin-5-yl)-2,3-dihydro-1H-inden-1-amine]",≤ 100
7,"CNC1CCc2c1cc(F)c(-c1cc3c(-c4cnn(C)c4)n[nH]c3cn1)c2F (centres unmarked) [Example 198, 4,6-Difluoro-N-methyl-5-(3-(1-methyl-1H-pyrazol-4-yl)-1H-pyrazolo[3,4-c]pyridin-5-yl)-2,3-dihydro-1H-inden-1-amine]",≤ 100
8,"CNC1CCc2cc(F)c(-c3cc4c(-c5ccc(N6CCN(C)CC6)cc5)n[nH]c4cn3)c(F)c2C1 (centres unmarked) [Example 199, 6,8-Difluoro-N-methyl-7-(3-(4-(4-methylpiperazin-1-yl)phenyl)-1H-pyrazolo[3,4-c]pyridin-5-yl)-1,2,3,4-tetrahydronaphthalen-2-amine]",≤ 100
9,"CNC1CCc2cc(F)c(-c3cc4c(-c5cnn(C)c5)n[nH]c4cn3)c(F)c2C1 (centres unmarked) [Example 200, 6,8-Difluoro-N-methyl-7-(3-(1-methyl-1H-pyrazol-4-yl)-1H-pyrazolo[3,4-c]pyridin-5-yl)-1,2,3,4-tetrahydronaphthalen-2-amine]",≤ 100
10,"CNC(=O)c1ccc(-c2n[nH]c3cnc(-c4c(F)cc5c(c4F)CCCC5NC)cc23)cc1 (centres unmarked) [Example 201, 4-(5-(1,3-Difluoro-5-(methylamino)-5,6,7,8-tetrahydronaphthalen-2-yl)-1H-pyrazolo[3,4-c]pyridin-3-yl)-N-methylbenzamide]",≤ 100
11,"CNC1CCCc2c1cc(F)c(-c1cc3c(-c4cnn(C)c4)n[nH]c3cn1)c2F (centres unmarked) [Example 202, 5,7-Difluoro-N-methyl-6-(3-(1-methyl-1H-pyrazol-4-yl)-1H-pyrazolo[3,4-c]pyridin-5-yl)-1,2,3,4-tetrahydronaphthalen-1-amine]",≤ 100
12,"CN1CCN(c2ccc(-c3n[nH]c4cnc(-c5c(F)cc6c(c5F)CCCC6N)cc34)cn2)CC1 (centres unmarked) [Example 203, 5,7-Difluoro-6-(3-(6-(4-methylpiperazin-1-yl)pyridin-3-yl)-1H-pyrazolo[3,4-c]pyridin-5-yl)-1,2,3,4-tetrahydronaphthalen-1-amine]",≤ 100
13,"CNC(=O)c1ccc(-c2n[nH]c3cnc(-c4c(F)cc5c(c4F)C(NC)CC5)cc23)cc1 (centres unmarked) [Example 204, 4-(5-(4,6-Difluoro-3-(methylamino)-2,3-dihydro-1H-inden-5-yl)-1H-pyrazolo[3,4-c]pyridin-3-yl)-N-methylbenzamide]",≤ 100
14,"CNC1CCc2cc(F)c(-c3cc4c(-c5ccc(N6CCN(C)CC6)cc5)n[nH]c4cn3)c(F)c21 (centres unmarked) [Example 205, 5,7-Difluoro-N-methyl-6-(3-(4-(4-methylpiperazin-1-yl)phenyl)-1H-pyrazolo[3,4-c]pyridin-5-yl)-2,3-dihydro-1H-inden-1-amine]",≤ 100
15,"COc1c(-c2cc3c(-c4ccc(N5CCN(C)CC5)cc4)n[nH]c3cn2)c(F)cc2c1C(N)CC2 (centres unmarked) [Example 206, 5-Fluoro-7-methoxy-6-(3-(4-(4-methylpiperazin-1-yl)phenyl)-1H-pyrazolo[3,4-c]pyridin-5-yl)-2,3-dihydro-1H-inden-1-amine]",≤ 100
16,"COc1c(-c2cc3c(-c4cnn(C)c4)n[nH]c3cn2)c(F)cc2c1C(N)CC2 (centres unmarked) [Example 207, 5-Fluoro-7-methoxy-6-(3-(1-methyl-1H-pyrazol-4-yl)-1H-pyrazolo[3,4-c]pyridin-5-yl)-2,3-dihydro-1H-inden-1-amine]",≤ 100

row,Structure (SMILES),Ki [nM]
1,"CNC(=O)c1ccc(-c2n[nH]c3cnc(-c4c(F)ccc5c4CCCC5NC)cc23)cn1 (centres unmarked) [Example 208, 5-(5-(2-Fluoro-5-(methylamino)-5,6,7,8-tetrahydronaphthalen-1-yl)-1H-pyrazolo[3,4-c]pyridin-3-yl)-N-methylpicolinamide]",≤ 100
2,"CNC1CCCc2c1ccc(F)c2-c1cc2c(-c3ccc(N4CCN(C)CC4)cc3)n[nH]c2cn1 (centres unmarked) [Example 209, 6-Fluoro-N-methyl-5-(3-(4-(4-methylpiperazin-1-yl)phenyl)-1H-pyrazolo[3,4-c]pyridin-5-yl)-1,2,3,4-tetrahydronaphthalen-1-amine]",≤ 100
3,"Cn1cc(-c2n[nH]c3cnc(-c4c(F)ccc5c4CCCC5N)cc23)cn1 (centres unmarked) [Example 210, 6-Fluoro-5-(3-(1-methyl-1H-pyrazol-4-yl)-1H-pyrazolo[3,4-c]pyridin-5-yl)-1,2,3,4-tetrahydronaphthalen-1-amine]",≤ 100
4,"CN1CCN(c2ncc(-c3n[nH]c4cnc(-c5c(F)cc(CC#N)cc5F)cc34)cn2)CC1 [Example 211, 2-(3,5-Difluoro-4-(3-(2-(4-methylpiperazin-1-yl)pyrimidin-5-yl)-1H-pyrazolo[3,4-c]pyridin-5-yl)phenyl)acetonitrile]",≤ 100
5,"Cn1cc(-c2n[nH]c3cnc(-c4c(F)cc5c(c4F)C(O)CC5)cc23)cn1 (centres unmarked) [Example 212, 5,7-Difluoro-6-(3-(1-methyl-1H-pyrazol-4-yl)-1H-pyrazolo[3,4-c]pyridin-5-yl)-2,3-dihydro-1H-inden-1-ol]",≤ 100
6,"CN1CCN(c2ccc(-c3n[nH]c4cnc(-c5c(F)cc6c(c5F)C(O)CC6)cc34)cn2)CC1 (centres unmarked) [Example 213, 5,7-Difluoro-6-(3-(6-(4-methylpiperazin-1-yl)pyridin-3-yl)-1H-pyrazolo[3,4-c]pyridin-5-yl)-2,3-dihydro-1H-inden-1-ol]",≤ 100
7,"CNC1CCc2cc(F)c(-c3ncc4[nH]nc(-c5cnn(C)c5)c4c3OC)c(F)c2C1 (centres unmarked) [Example 214, 6,8-Difluoro-7-(4-methoxy-3-(1-methyl-1H-pyrazol-4-yl)-1H-pyrazolo[3,4-c]pyridin-5-yl)-N-methyl-1,2,3,4-tetrahydronaphthalen-2-amine]",≤ 100
8,"CNCc1cc(F)c(-c2ncc3[nH]nc(-c4cnn(C)c4)c3c2OC)c(F)c1 [Example 215, 1-(3,5-Difluoro-4-(4-methoxy-3-(1-methyl-1H-pyrazol-4-yl)-1H-pyrazolo[3,4-c]pyridin-5-yl)phenyl)-N-methylmethanamine]",≤ 100
9,"Cn1cc(-c2n[nH]c3cnc(-c4c(F)cc5c(c4F)C(N)CC5)c(F)c23)cn1 (centres unmarked) [Example 216, 5,7-Difluoro-6-(4-fluoro-3-(1-methyl-1H-pyrazol-4-yl)-1H-pyrazolo[3,4-c]pyridin-5-yl)-2,3-dihydro-1H-inden-1-amine]",≤ 100
10,"CNCc1cc(F)c(-c2cc3c(-c4cnc(N5CCN(C)CC5)nc4)n[nH]c3cn2)c(F)c1 [Example 217, 1-(3,5-Difluoro-4-(3-(2-(4-methylpiperazin-1-yl)pyrimidin-5-yl)-1H-pyrazolo[3,4-c]pyridin-5-yl)phenyl)-N-methylmethanamine]",≤ 100
11,"CNCc1cc(F)c(-c2cc3c(-c4cnc(N5CCC(O)CC5)nc4)n[nH]c3cn2)c(F)c1 [Example 218, 1-(5-(5-(2,6-Difluoro-4-((methylamino)methyl)phenyl)-1H-pyrazolo[3,4-c]pyridin-3-yl)pyrimidin-2-yl)piperidin-4-ol]",≤ 100
12,"CNCc1cc(F)c(-c2cc3c(-c4cncc(N5CCN(C)CC5)c4)n[nH]c3cn2)c(F)c1 [Example 219, 1-(3,5-Difluoro-4-(3-(5-(4-methylpiperazin-1-yl)pyridin-3-yl)-1H-pyrazolo[3,4-c]pyridin-5-yl)phenyl)-N-methylmethanamine]",≤ 100
13,"CNC1CCc2c1cc(C)c(-c1cc3c(-c4cnn(C)c4)n[nH]c3cn1)c2F (centres unmarked) [Example 220, 4-Fluoro-N,6-dimethyl-5-(3-(1-methyl-1H-pyrazol-4-yl)-1H-pyrazolo[3,4-c]pyridin-5-yl)-2,3-dihydro-1H-inden-1-amine]",≤ 100
14,"Cc1c(CN2CC(C)(C)C2)ccc(F)c1-c1cc2c(-c3cnn(C)c3)n[nH]c2cn1 [Example 221, 5-(3-((3,3-Dimethylazetidin-1-yl)methyl)-6-fluoro-2-methylphenyl)-3-(1-methyl-1H-pyrazol-4-yl)-1H-pyrazolo[3,4-c]pyridine]",≤ 100
15,"CO[C@H]1C[C@H](NCc2ccc(F)c(-c3cc4c(-c5cnn(C)c5)n[nH]c4cn3)c2C)C1 [Example 222, trans-N-(4-Fluoro-2-methyl-3-(3-(1-methyl-1H-pyrazol-4-yl)-1H-pyrazolo[3,4-c]pyridin-5-yl)benzyl)-3-methoxycyclobutanamine]",≤ 100
16,"Cc1c(CNC2CC(C)(C)C2)ccc(F)c1-c1cc2c(-c3cnn(C)c3)n[nH]c2cn1 [Example 223, N-(4-Fluoro-2-methyl-3-(3-(1-methyl-1H-pyrazol-4-yl)-1H-pyrazolo[3,4-c]pyridin-5-yl)benzyl)-3,3-dimethylcyclobutanamine]",≤ 100
